Test results published in ChEMBL document CHEMBL1649069, “Discovery of a series of phosphonic acid-containing thiazoles and orally bioavailable diamide prodrugs that lower glucose in diabetic animals through inhibition of fructose-1,6-bisphosphatase” (J Med Chem, 2011).
The source made the active and inactive calls. The calls are words filed in the database; no cut-off is given here.

Columns and labels:
Rattus norvegicus [1] = assay: Antidiabetic activity in Sprague-Dawley rat assessed as decrease in glucose Cmax at 10 mg/kg, iv; type: functional
[2] = target: T1, Fructose-1,6-bisphosphatase 1 (Homo sapiens, UniProt P09467)
T1 sequence (P09467 whole entry): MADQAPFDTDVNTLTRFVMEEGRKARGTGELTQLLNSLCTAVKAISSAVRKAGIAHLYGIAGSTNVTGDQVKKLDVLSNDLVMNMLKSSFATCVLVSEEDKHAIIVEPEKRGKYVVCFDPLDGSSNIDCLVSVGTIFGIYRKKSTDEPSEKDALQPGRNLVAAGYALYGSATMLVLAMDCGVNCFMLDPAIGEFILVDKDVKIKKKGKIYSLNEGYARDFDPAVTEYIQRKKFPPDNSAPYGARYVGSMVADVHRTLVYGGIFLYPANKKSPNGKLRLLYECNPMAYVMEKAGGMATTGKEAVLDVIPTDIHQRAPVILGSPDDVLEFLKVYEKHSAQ
Description: Inhibition of human liver FBP

Rattus norvegicus [3] = assay: Antidiabetic activity in Sprague-Dawley rat assessed as decrease in glucose Cmax at 10 mg/kg, po; type: functional
[4] = (§1) Oral bioavailability in Sprague-Dawley rat; type: ADME, organism-based; details: Sprague-Dawley, in vivo
[5] = Volume of distribution in Sprague-Dawley rat; type: ADME, organism-based; details: in vivo
[6] = Clearance in Sprague-Dawley rat; type: ADME, organism-based; details: in vivo
[7] = Plasma protein binding in Sprague-Dawley rat; type: ADME, cell-free; details: read-out: PPB (converted)
[8] = Half life in Sprague-Dawley rat; type: ADME, organism-based; details: in vivo
[9] = Plasma protein binding in human; type: ADME, cell-free; details: read-out: PPB (converted)
Rattus norvegicus [10] = assay: Antihyperglycemic activity in Zucker fa/fa rat assessed as reduction in glucose level at 0.4 % w/w administered as food mixture; type: functional, organism-based
Rattus norvegicus [11] = assay: Antidiabetic activity in Sprague-Dawley rat assessed as decrease in glucose Cmax at 30 mg/kg
Rattus norvegicus [12] = assay: as §1; type: ADME, organism-based; details: in vivo
[13] = Oral bioavailability in dog; type: ADME, organism-based, Canis lupus familiaris; details: in vivo
[14] = Oral bioavailability in rat; type: ADME, organism-based; details: in vivo

Structure (SMILES) | IC50 [2] | inhibition in vivo at 10 mg/kg (Rattus norvegicus [1]) | also measured
Cc1nc(-c2ccc(P(=O)(O)O)o2)c(CC(C)C)s1 | – | 55% | –
Nc1nc(-n2ccc(P(=O)(O)O)c2)c(-c2ccccc2)s1 | > 10000 nM | – | –
Nc1nc(-c2ccc(P(=O)(O)O)o2)c(-c2ccco2)s1 | – | 21% | –
COc1ccccc1-c1sc(N)nc1-c1ccc(P(=O)(O)O)o1 | – | 66% | –
Nc1nc(-c2ccc(P(=O)(O)O)o2)c(C(=O)OCc2ccccc2)s1 | – | 42% | –
Nc1nc(-c2ccc(P(=O)(O)O)o2)c(Cl)s1 | – | 17% | –
Nc1nc(-c2cccc(P(=O)(O)O)c2)cs1 | 1300 nM | – | –
Nc1nc(-c2ccc(P(=O)(O)O)o2)c(-c2ccc(F)cc2)s1 | – | 60% | –
CC(C)(C)c1ccc(-c2sc(N)nc2-c2ccc(P(=O)(O)O)o2)cc1 | – | 6% | –
CC(C)Cc1sc(Br)nc1-c1ccc(P(=O)(O)O)o1 | – | 3% | –
CCOC(=O)CNP(=O)(Oc1ccccc1)c1ccc(-c2nc(N)sc2CC(C)C)o1 (stereo not drawn) | – | – | inhibition in vivo at 10 mg/kg (Rattus norvegicus [3]): 51%
CCc1cc(F)c(N)c2nc(-c3ccc(P(=O)(O)O)o3)n(CC(C)C)c12 | – | – | bioavailability [4]: 2%; Vd [5]: 0.25 L/kg; clearance [6]: 4.33 mL/min/kg; fraction unbound [7]: 0.01; half-life [8]: 45 min; fraction unbound [9]: 0.001
Nc1nc(-c2ccc(P(=O)(O)O)o2)c(-c2ccc(-c3ccccc3)cc2)s1 | – | 36% | –
CCOC(=O)[C@H](C)NP(=O)(N[C@@H](C)C(=O)OCC)c1ccc(-c2nc(N)sc2CC(C)C)o1 | – | – | inhibition in vivo at 10 mg/kg (Rattus norvegicus [3]): 59%; inhibition (Rattus norvegicus [10]): Active
CC(C)Cc1sc(N)nc1-c1ccc(P2(=O)OCC[C@H](c3cccc(Cl)c3)O2)o1 (stereo partly drawn) | – | – | inhibition in vivo at 30 mg/kg (Rattus norvegicus [11]): 53%
CC(C)Cc1sc(N)nc1-c1ccc(P(=O)(O)O)o1 [MB-05032] | – | 65% | F (Rattus norvegicus [12]): 4%; Vd [5]: 0.18 L/kg; clearance [6]: 4 mL/min/kg; fraction unbound [7]: 0.1; half-life [8]: 39 min; fraction unbound [9]: 0.07
CCOC(=O)OC(C)OP(=O)(OC(C)OC(=O)OCC)c1ccc(-c2nc(N)sc2CC(C)C)o1 (stereo not drawn) | – | – | inhibition in vivo at 10 mg/kg (Rattus norvegicus [3]): 12%
CCCc1sc(N)nc1C(=O)OCP(=O)(O)O | 50 nM | 63% | –
CCCSc1sc(N)nc1-c1ccc(P(=O)(O)O)o1 | – | 82% | –
CCOC(=O)OCOP(=O)(OCOC(=O)OCC)c1ccc(-c2nc(N)sc2CC(C)C)o1 | – | – | inhibition in vivo at 30 mg/kg (Rattus norvegicus [11]): 40%
Nc1nc(-c2ccc(P(=O)(O)O)o2)c(-c2cccs2)s1 | – | 24% | –
CCOC(=O)[C@H](C)NP(=O)(Oc1ccccc1)c1ccc(-c2nc(N)sc2CC(C)C)o1 (stereo partly drawn) | – | – | inhibition in vivo at 30 mg/kg (Rattus norvegicus [11]): 46%
Nc1nc(-c2ccc(P(=O)(O)O)o2)c(Br)s1 | – | 20% | –
CCOC(=O)[C@H](C)NP(=O)(N[C@@H](C)C(=O)OCC)c1ccc(-c2nc3c(N)c(F)cc(CC)c3n2CC(C)C)o1 | – | – | bioavailability [4]: 5%; bioavailability [13]: > 10%; bioavailability [14]: > 10%
CCOC(=O)c1sc(N)nc1-c1ccc(P(=O)(O)O)o1 | – | 76% | –
Nc1nc(-c2ccc(F)c(P(=O)(O)O)c2)c(-c2ccccc2)s1 | – | 0% | –
CCOC(=O)C(C)(C)NP(=O)(NC(C)(C)C(=O)OCC)c1ccc(-c2nc(N)sc2CC(C)C)o1 | – | – | inhibition in vivo at 10 mg/kg (Rattus norvegicus [3]): 45%

Second part, led by results:

IC50 [2] | Structure (SMILES) | inhibition in vivo at 10 mg/kg (Rattus norvegicus [1]) | also measured
22 nM | COc1ccc(-c2sc(N)nc2-c2ccc(P(=O)(O)O)o2)cc1 | 63% | –
2750 nM | CC(C)Cc1sc(C(N)=O)nc1-c1ccc(P(=O)(O)O)o1 | – | –
2000 nM | CC(C)Cc1sc(C#N)nc1-c1ccc(P(=O)(O)O)o1 | – | –
32 nM | CC(=O)c1ccc(-c2sc(N)nc2-c2ccc(P(=O)(O)O)o2)cc1 | 43% | –
180 nM | CC(C)Cc1sc(Cl)nc1-c1ccc(P(=O)(O)O)o1 | – | –
14 nM | Nc1nc(-c2ccc(P(=O)(O)O)o2)c(-c2ccccc2)s1 | 76% | –
1200 nM | C=Cc1nc(-c2ccc(P(=O)(O)O)o2)c(CC(C)C)s1 | – | –
21 nM | COc1cccc(-c2sc(N)nc2-c2ccc(P(=O)(O)O)o2)c1 | 0% | –
100 nM | Nc1nc(-c2ccc(P(=O)(O)O)o2)c(I)s1 | -2% | –
800 nM | CC(C)Cn1c(-c2ccc(P(=O)(O)O)o2)nc2c(N)ncnc21 | – | –
950 nM | Nc1nc(C(=O)NCP(=O)(O)O)c(-c2cccs2)s1 | – | –
24 nM | CC(C)Sc1sc(N)nc1-c1ccc(P(=O)(O)O)o1 | 48% | –
21 nM | CSc1ccc(-c2sc(N)nc2-c2ccc(P(=O)(O)O)o2)cc1 | 72% | –
890 nM | CSc1nc(-c2ccc(P(=O)(O)O)o2)c(CC(C)C)s1 | – | –
220 nM | CC(C)Cc1sc(CO)nc1-c1ccc(P(=O)(O)O)o1 | 8% | –
400 nM | CCc1nc(-c2ccc(P(=O)(O)O)o2)c(CC(C)C)s1 | – | –

IC50 [2] | Structure (SMILES) | inhibition in vivo at 10 mg/kg (Rattus norvegicus [1]) | also measured
33 nM | CCSc1sc(N)nc1-c1ccc(P(=O)(O)O)o1 | – | –
24 nM | CC(C)(C)Sc1sc(N)nc1-c1ccc(P(=O)(O)O)o1 | – | –
12 nM | Nc1nc(-c2ccc(P(=O)(O)O)o2)c(-c2ccc3ccccc3c2)s1 | 20% | –
250 nM | CCCc1sc(N)nc1-c1cccc(P(=O)(O)O)c1 | 0% | –
14 nM | COC(=O)c1ccc(-c2sc(N)nc2-c2ccc(P(=O)(O)O)o2)cc1 | 78% | –
41 nM | CS(=O)(=O)c1ccc(-c2sc(N)nc2-c2ccc(P(=O)(O)O)o2)cc1 | 78% | –
10000 nM | Cc1oc(-c2nc(N)sc2-c2ccccc2)nc1P(=O)(O)O | – | –
120 nM | Cc1sc(N)nc1-c1ccc(P(=O)(O)O)o1 | – | –
16 nM | Nc1nc(-c2ccc(P(=O)(O)O)o2)c(N2CCOCC2)s1 | 75% | –
20 nM | Nc1nc(-c2ccc(P(=O)(O)O)o2)c(CC2CC2)s1 | – | –
> 10000 nM | CCCc1sc(N)nc1-c1ccc(P(=O)(O)O)s1 | – | –
300 nM | Nc1nc(-c2ccc(P(=O)(O)O)o2)c(Sc2ccccc2)s1 | – | –
150 nM | Nc1nc(-c2ccc(P(=O)(O)O)o2)c(Cc2ccccc2)s1 | – | –
13 nM | Nc1nc(-c2ccc(P(=O)(O)O)o2)c(-c2ccc(Cl)cc2)s1 | 40% | –
19 nM | Nc1nc(-c2ccc(P(=O)(O)O)o2)c(C2CCC2)s1 | – | –
5000 nM | CC(C)Cc1sc(-c2cccnc2)nc1-c1ccc(P(=O)(O)O)o1 | – | –
